Like-named read-outs stand apart in the source and are kept apart here.
What was measured:
[1] = system: AMPK signal pathway in human cardiac myocytes (HCM); assay: Western blot assay, human cardiomyocytes; type: cell-based
[2] = Plasma and tissue concentration in high fat diet mice, day 36; type: in vivo, mice (Mus musculus—C57BL-6); conditions: for concentration at 1 h / concentration at 3 h / concentration at 4 h: male, C57BL-6, mouse, oral
Description: Doses were 30 and 50 mg/kg and administered orally (p.o.) once a day (QD) for 36 days. Dose volume was 10 mL/kg, which was administered to male, 18-22-week-old mice (Mus musculus—C57BL-6) with body weight between 18-19.4 g each. Mice were grouped into 3 groups of 10. The diet for induced obesity mice were selected as a test system
Plasma lipid profile: On day 34 total cholesterol levels, triglyceride, HDL, and LDL levels were detected. Plasma insulin (fasting) and plasma NEFA (fasting) was tested on day 36. Cumulative food consumption was measured daily starting from day 1 onwards up to end of the study period. Liver, heart, jejunum, and brain tissue were collected for additional testing.

O=c1[nH]c(-c2c[nH]c3cc(F)c(-c4ccc(C5(O)CCC5)cc4)c(F)c23)no1 [Compound I-11, 3-(4,6-difluoro-5-(4-(1-hydroxycyclobutyl)phenyl)-1H-indol-3-yl)-1,2,4-oxadiazol-5(4H)-one]
p-ACC/p-AMPK and AMPKα2β2γ3 expression [1]: did not activate | Brain (ng/mL) ([2]; 30 mg/kg, 1 hr): BLQ | Brain (ng/mL) ([2]; 30 mg/kg, 3 hr): BLQ | Skeletal muscle (ng/mL) ([2]; 30 mg/kg, 3 hr): BLQ | Brain (ng/mL) ([2]; 50 mg/kg, 1 hr): BLQ | Skeletal muscle (ng/mL) ([2]; 50 mg/kg, 1 hr): BLQ | Brain (ng/mL) ([2]; 50 mg/kg, 3 hr): BLQ | Skeletal muscle (ng/mL) ([2]; 50 mg/kg, 3 hr): BLQ | Brain (ng/mL) ([2]; 50 mg/kg, 4 hr): BLQ | Skeletal muscle (ng/mL) ([2]; 50 mg/kg, 4 hr): BLQ | concentration at 1 h ([2]; adipose tissue (abdominal fat), 30 mg/kg, 1 hr, read-out: Adipose tissue (abdominal fat)): 57 ng/mL | concentration at 3 h ([2]; adipose tissue (abdominal fat), 30 mg/kg, 3 hr, read-out: Adipose tissue (abdominal fat)): 23 ng/mL | concentration at 4 h ([2]; adipose tissue (abdominal fat), 30 mg/kg, 4 hr, read-out: Adipose tissue (abdominal fat)): 38 ng/mL | concentration at 1 h ([2]; adipose tissue (abdominal fat), 50 mg/kg, 1 hr, read-out: Adipose tissue (abdominal fat)): 2000 ng/mL | concentration at 3 h ([2]; adipose tissue (abdominal fat), 50 mg/kg, 3 hr, read-out: Adipose tissue (abdominal fat)): 1590 ng/mL | concentration at 4 h ([2]; adipose tissue (abdominal fat), 50 mg/kg, 4 hr, read-out: Adipose tissue (abdominal fat)): 1760 ng/mL | concentration at 4 h ([2]; brain, 30 mg/kg, 4 hr, read-out: Brain): 6 ng/mL | concentration at 1 h ([2]; heart, 30 mg/kg, 1 hr, read-out: Heart): 103 ng/mL | concentration at 3 h ([2]; heart, 30 mg/kg, 3 hr, read-out: Heart): 32 ng/mL | concentration at 4 h ([2]; heart, 30 mg/kg, 4 hr, read-out: Heart): 31 ng/mL | concentration at 1 h ([2]; heart, 50 mg/kg, 1 hr, read-out: Heart): 52 ng/mL | concentration at 3 h ([2]; heart, 50 mg/kg, 3 hr, read-out: Heart): 36 ng/mL | concentration at 4 h ([2]; heart, 50 mg/kg, 4 hr, read-out: Heart): 102 ng/mL | concentration at 1 h ([2]; jejunum, 30 mg/kg, 1 hr, read-out: Jejunum): 124000 ng/mL | concentration at 3 h ([2]; jejunum, 30 mg/kg, 3 hr, read-out: Jejunum): 35 ng/mL | concentration at 4 h ([2]; jejunum, 30 mg/kg, 4 hr, read-out: Jejunum): 27 ng/mL | concentration at 1 h ([2]; jejunum, 50 mg/kg, 1 hr, read-out: Jejunum): 4390 ng/mL | concentration at 3 h ([2]; jejunum, 50 mg/kg, 3 hr, read-out: Jejunum): 165 ng/mL | concentration at 4 h ([2]; jejunum, 50 mg/kg, 4 hr, read-out: Jejunum): 55 ng/mL | concentration at 1 h ([2]; liver, 30 mg/kg, 1 hr, read-out: Liver): 118 ng/mL | concentration at 3 h ([2]; liver, 30 mg/kg, 3 hr, read-out: Liver): 74 ng/mL | concentration at 4 h ([2]; liver, 30 mg/kg, 4 hr, read-out: Liver): 106 ng/mL | concentration at 1 h ([2]; liver, 50 mg/kg, 1 hr, read-out: Liver): 80 ng/mL | concentration at 3 h ([2]; liver, 50 mg/kg, 3 hr, read-out: Liver): 64 ng/mL | concentration at 4 h ([2]; liver, 50 mg/kg, 4 hr, read-out: Liver): 71 ng/mL | concentration at 1 h ([2]; plasma, 30 mg/kg, 1 hr, read-out: Plasma): 627 ng/mL | concentration at 3 h ([2]; plasma, 30 mg/kg, 3 hr, read-out: Plasma): 147 ng/mL | concentration at 4 h ([2]; plasma, 30 mg/kg, 4 hr, read-out: Plasma): 121 ng/mL | concentration at 1 h ([2]; plasma, 50 mg/kg, 1 hr, read-out: Plasma): 501 ng/mL | concentration at 3 h ([2]; plasma, 50 mg/kg, 3 hr, read-out: Plasma): 199 ng/mL | concentration at 4 h ([2]; plasma, 50 mg/kg, 4 hr, read-out: Plasma): 112 ng/mL | concentration at 1 h ([2]; skeletal muscle, 30 mg/kg, 1 hr, read-out: Skeletal muscle): 287 ng/mL | concentration at 4 h ([2]; skeletal muscle, 30 mg/kg, 4 hr, read-out: Skeletal muscle): 56 ng/mL

— US20250388571A1, “AMP-ACTIVATED PROTEIN KINASE MODULATOR COMPOUNDS AND USES THEREOF” (Biolexis Therapeutics, Inc., priority 2024, published 2025)
